# Source: US7199286B2, “Plant-derived novel pathogen and SAR-induction chemical induced promoters, and fragments thereof” (Syngenta Participations AG, priority 1999, dated 2007)
# Key:
# Format in all cases: in vivo, Arabidopsis
# NI16 RNA [1] = experiment: Induction of NI16 mRNA by SA and BTH spray, RNA blot hybridization; conditions: WS-O plants sprayed with 5 mM SA or 300 μm BTH
# Method: RNA is prepared from 4 week old Wassilewskija (WS—O) plants, that are either sprayed with water, a 5 mM solution of sodium salicylate (SA), or a 300 μm solution of benzo-(1,2,3)-thiadiazole-7-carbothioic acid S-methyl ester (BTH). […] RNA extractions and RNA blot hybridizations are performed as described previously by Ausubel et al. (1987). NI16 RNA is induced 5–10 fold within 15 minutes of SA or BTH induction and reaches a peak of approximately 50 fold induction within 2 hours of SA treatment and 25 fold induction with BTH treatment.
# NI16 transcript = NI16 transcript accumulation in nim1-4 plants after BTH treatment; conditions: after 2 and 24 hours of BTH treatment
# NI16 RNA [2] = experiment: Quantitative Northern, NI16 level in wild type and NI16-overexpressing lines after BTH; conditions: for NI16 level (relative): 24 hours after induction
# Description: (§1) A NI16 construct is made in binary vector pBAR35S (obtained from Jeff Dangi, UNC-Chapel Hill). First a full-length clone is obtained by cloning the 5′ sequence of NI16 (obtained by 5′ RACE and cloned into AT vector pCR2.1) into the EcoRI site of the original pJG4-5 clone as an EcoRI fragment. Then the entire coding region of NI16 is PCR cloned back into pCR2.1 with the primers 16F and 16 R (Table 1). The resulting plasmid is cut with XbaI and SacI for cloning into pBAR35S. The clone is transformed into Agrobacterium strain GV3101 (Koncz and Schell, 1986). WS—O and nim1-4 plants are transformed using standard procedures and the resulting T1 seed is selected by spraying with a 60 μg/ml solution of BASTA every two days for 6 days after germination. BASTA resistant plants are analyzed for levels of NI16 and PR-1 RNA after 4 weeks.
# (§2) 4 WS—O plants expressing NI16 above wild type levels are recovered. All have elevated levels of PR-1 RNA as detected on Northern blots. All 4 plants are taken to the T3 generations. Quantitative Northerns are done on two of the T3 lines, one with a relatively low level of N116 RNA (1-1B) and one with a high level of N116 RNA (2-1B). Northerns are hybridized with NI16 and PR-1 probes. Measurements are taken with a Molecular Dynamics Phosphoimager, which directly measures counts per unit area. The amount of PR-1 RNA correlates directly with the amount of NI16 RNA, i.e., the highest expressers of NI16 have the highest levels of PR-1. (Table 2). […] PR-1 levels are induced at the same rate in the two NI16 lines as the WS—O control, however steady state PR-1 levels are higher, especially at 0 and 10 μm BTH. NI16 may therefore be necessary for the SAR response, and overexpression of NI16 may activate a subset of the response. PR-1 is also elevated in nahG, nim1-1 and nim1-4 plants overexpressing NI16. Out of 34 nim1-1 T1 plants containing the 35S-NI16 construct, 22 have elevated levels of PR-1. Similarly, 18/26 nim1-4 and 20/27 nahG primary transformants have elevated PR-1 levels. In each case, high NI16 expression is correlated with high PR-1 levels. This is significant because nim1 and nahG plants are normally deficient in their ability to induce PR1 in response to pathogens. Furthermore, this provides evidence that overexpression of NI16 can at least partially compensate for the absence of SA and a functional NIM protein in plants.
# NI16 gene = NI16 gene induction in NIM1-overexpressing plants treated with BTH
# PR-1 RNA = experiment: Quantitative Northern, PR-1 level in wild type and NI16-overexpressing lines after BTH; conditions: 24 hours after induction
# Description: as §1, §2
# [3] = NI16-overexpressing line 1-1B, 10 μm BTH
# [4] = NI16-overexpressing line 1-1B, 100 μm BTH
# [5] = NI16-overexpressing line 2-1B, 10 μm BTH
# [6] = NI16-overexpressing line 2-1B, 100 μm BTH
structure (smiles),measurement,setting,value
"CSC(=O)c1cccc2nnsc12 [BTH, benzo(1,2,3)thiadiazole-7-carbothioic acid S-methyl ester]",time NI16 transcript remains highly induced after treatment,NI16 RNA [1],at least 48 hours
same,NI16 RNA peak induction,"NI16 RNA [1]; peak, within 2 hours of SA treatment",~25 fold
same,NI16 transcript accumulation,NI16 transcript,unable to accumulate NI16 transcript
same,NI16 level (relative),NI16 RNA [2]; [3],1400
same,NI16 level (relative),NI16 RNA [2]; [4],1480
same,NI16 level (relative),NI16 RNA [2]; [5],14000
same,NI16 level (relative),NI16 RNA [2]; [6],12000
same,effect on amount of NI16 RNA,"NI16 RNA [2]; NI16 transgenic lines, BTH rates lower than normally used for protection to Peronospora parasitica",do not significantly increase the amount of NI16 RNA
same,NI16 level (relative),"NI16 RNA [2]; genotype WS, 10 μm BTH",10
same,NI16 level (relative),"NI16 RNA [2]; genotype WS, 100 μm BTH",90
same,NI16 gene induction,NI16 gene,induced
same,PR-1 level (relative),PR-1 RNA; [3],30
same,PR-1 level (relative),PR-1 RNA; [4],120
same,PR-1 level (relative),PR-1 RNA; [5],70
same,PR-1 level (relative),PR-1 RNA; [6],140
same,PR-1 level (relative),"PR-1 RNA; genotype WS, 10 μm BTH",30
same,PR-1 level (relative),"PR-1 RNA; genotype WS, 100 μm BTH",90
